From paper PMC3729023 (Journal of the American Chemical Society, 2012)

Experiments:
[1] = biological target: Src; experiment: Src kinase assay; type: biochemical; details: read-out: IC50 (inactive up to); Src pretreated 30 min in the presence of 0.25 mM ATP prior to initiating the kinase reaction
[2] = biological target: endogenous Src (Homo sapiens, UniProt P12931); details: Jurkat cells, inhibitor at 300 nM, then 1 (1 µM, 15 min)
[3] = biological target: endogenous Lck (Homo sapiens, UniProt P06239); experiment: Competitive profiling with probe 1 in Jurkat cells: Lck; type: cell-based; details: inhibitor at 300 nM, then 1 (1 µM, 15 min)
Sequence of endogenous Lck (P06239 whole entry): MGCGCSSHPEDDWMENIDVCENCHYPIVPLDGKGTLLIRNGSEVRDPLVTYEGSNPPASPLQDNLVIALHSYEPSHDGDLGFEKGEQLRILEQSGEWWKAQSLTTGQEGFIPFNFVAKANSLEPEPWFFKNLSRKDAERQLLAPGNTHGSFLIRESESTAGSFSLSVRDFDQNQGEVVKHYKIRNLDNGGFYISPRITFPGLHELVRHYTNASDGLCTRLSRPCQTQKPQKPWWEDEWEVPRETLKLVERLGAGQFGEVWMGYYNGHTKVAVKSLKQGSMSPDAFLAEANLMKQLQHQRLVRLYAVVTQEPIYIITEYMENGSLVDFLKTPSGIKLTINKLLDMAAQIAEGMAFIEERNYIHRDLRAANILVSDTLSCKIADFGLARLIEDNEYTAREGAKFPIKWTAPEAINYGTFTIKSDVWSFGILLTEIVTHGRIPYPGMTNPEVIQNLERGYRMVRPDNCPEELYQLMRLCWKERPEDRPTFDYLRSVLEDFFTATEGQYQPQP

[4] = in humans; cited from earlier work
[5] = biological target: endogenous Fyn (Homo sapiens, UniProt P06241); experiment: Competitive profiling with probe 1 in Jurkat cells: Fyn; type: cell-based; details: inhibitor at 300 nM, then 1 (1 µM, 15 min)
Sequence of endogenous Fyn (P06241 1-534 isoform P06241-2): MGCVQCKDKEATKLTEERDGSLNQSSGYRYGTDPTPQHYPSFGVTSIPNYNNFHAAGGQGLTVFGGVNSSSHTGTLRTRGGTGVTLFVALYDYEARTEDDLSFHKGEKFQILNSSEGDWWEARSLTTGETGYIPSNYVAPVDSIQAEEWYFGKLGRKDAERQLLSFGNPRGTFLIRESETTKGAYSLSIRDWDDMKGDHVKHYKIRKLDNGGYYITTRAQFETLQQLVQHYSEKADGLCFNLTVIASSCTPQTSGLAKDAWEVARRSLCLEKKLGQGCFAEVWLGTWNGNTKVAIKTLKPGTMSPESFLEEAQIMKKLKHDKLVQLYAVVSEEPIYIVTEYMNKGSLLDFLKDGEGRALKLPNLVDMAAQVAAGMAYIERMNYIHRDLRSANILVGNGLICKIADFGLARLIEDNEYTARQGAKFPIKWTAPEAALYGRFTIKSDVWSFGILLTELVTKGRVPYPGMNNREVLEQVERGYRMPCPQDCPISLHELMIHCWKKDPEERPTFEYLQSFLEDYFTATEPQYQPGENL

[6] = biological target: endogenous Blk (Homo sapiens, UniProt P51451); experiment: Competitive profiling with probe 1 in Jurkat cells: Blk; type: cell-based; details: inhibitor at 300 nM, then 1 (1 µM, 15 min)
Sequence of endogenous Blk (P51451 whole entry): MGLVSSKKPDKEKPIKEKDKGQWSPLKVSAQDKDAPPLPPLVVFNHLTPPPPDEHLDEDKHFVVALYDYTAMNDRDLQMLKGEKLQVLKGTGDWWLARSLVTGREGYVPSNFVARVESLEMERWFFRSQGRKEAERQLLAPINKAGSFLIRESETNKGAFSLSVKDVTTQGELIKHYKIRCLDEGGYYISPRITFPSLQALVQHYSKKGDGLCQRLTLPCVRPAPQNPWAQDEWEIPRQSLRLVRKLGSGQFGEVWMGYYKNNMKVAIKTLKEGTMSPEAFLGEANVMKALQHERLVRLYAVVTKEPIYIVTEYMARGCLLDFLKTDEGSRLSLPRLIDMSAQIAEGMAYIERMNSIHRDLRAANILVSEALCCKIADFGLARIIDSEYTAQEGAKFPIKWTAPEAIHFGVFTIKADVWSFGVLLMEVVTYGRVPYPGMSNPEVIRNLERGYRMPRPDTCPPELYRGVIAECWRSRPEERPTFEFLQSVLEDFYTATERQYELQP

Sequence of endogenous Src (P12931 whole entry): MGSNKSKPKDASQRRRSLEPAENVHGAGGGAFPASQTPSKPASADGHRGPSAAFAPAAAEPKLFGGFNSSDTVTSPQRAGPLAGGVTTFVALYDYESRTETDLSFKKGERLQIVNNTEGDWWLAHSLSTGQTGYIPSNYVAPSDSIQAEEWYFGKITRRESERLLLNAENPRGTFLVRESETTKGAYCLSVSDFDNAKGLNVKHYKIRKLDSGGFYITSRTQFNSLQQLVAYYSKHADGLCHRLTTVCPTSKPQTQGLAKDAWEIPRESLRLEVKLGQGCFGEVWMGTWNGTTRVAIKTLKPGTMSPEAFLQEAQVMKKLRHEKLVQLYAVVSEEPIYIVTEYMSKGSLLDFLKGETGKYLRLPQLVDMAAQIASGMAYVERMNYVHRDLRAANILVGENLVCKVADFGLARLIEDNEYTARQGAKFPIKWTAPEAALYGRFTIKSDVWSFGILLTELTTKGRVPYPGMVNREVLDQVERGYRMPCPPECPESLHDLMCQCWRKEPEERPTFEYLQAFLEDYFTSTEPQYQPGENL

SMILES | IC50 [1] | labeling of endogenous Src by 1 [2] | labeling of endogenous Lck by 1 [3] | mean steady-state concentrations [4] | labeling of endogenous Fyn by 1 [5] | labeling of endogenous Blk by 1 [6]
Nc1ncnc2c1ncn2[C@@H]1O[C@H](COC(=O)c2ccc(S(=O)(=O)F)cc2)[C@@H](O)[C@H]1O [FSBA, p-fluorosulfonylbenzoyl adenosine] | > 10 µM | – | – | – | – | –
Cc1ccc(C(=O)Nc2ccc(CN3CCN(C)CC3)c(C(F)(F)F)c2)cc1C#Cc1cnc2cccnn12 [ponatinib] | – | unaffected | abrogated labeling | 75 to 180 nM | unaffected | abrogated labeling
